The source of these data is PubChem BioAssay AID1259407 (Chemical Carcinogenesis Research Information System (CCRIS), 2018).

Molecules are shown by their SMILES. The source made the active and inactive calls. The rule behind the calls is not given here.

The test system of this data set is CCRIS mutagenicity, Ames/micronucleus/aberration tests. In words: CCRIS mutagenicity studies.
Where [1] appears, read: Test System: AMES SALMONELLA TYPHIMURIUM, Strain/Indicator: TA98, Metabolic Activation: NONE.
Setting [2] is: Test System: AMES SALMONELLA TYPHIMURIUM, Strain/Indicator: TA98, Metabolic Activation: NONE, Method: STANDARD PLATE.
Setting [3] is: Test System: AMES SALMONELLA TYPHIMURIUM, Strain/Indicator: TA100, Metabolic Activation: NONE.
Setting [4] is: Test System: AMES SALMONELLA TYPHIMURIUM, Strain/Indicator: TA100, Metabolic Activation: NONE, Method: STANDARD PLATE.
Where [5] appears, read: Test System: MOUSE LYMPHOMA, Strain/Indicator: L5178Y (TK+/TK-), Metabolic Activation: RAT, LIVER, S-9, AROCLOR 1254, Method: SUSPENSION/PLATE.

With `COC(C)(C)C`, the mutagenic call is “inactive; negative” under setting [1]; “inactive; negative” (Test System: AMES SALMONELLA TYPHIMURIUM, Strain/Indicator: TA98, Metabolic Activation: NONE, Method: MICROSUSPENSION); “inactive; negative” under setting [2]; “inactive; negative” (Test System: AMES SALMONELLA TYPHIMURIUM, Strain/Indicator: TA98, Metabolic Activation: RAT LIVER S-9); “inactive; negative” (Test System: AMES SALMONELLA TYPHIMURIUM, Strain/Indicator: TA98, Metabolic Activation: RAT LIVER S-9, AROCLOR 1254, Method: STANDARD PLATE); “inactive; negative” (Test System: AMES SALMONELLA TYPHIMURIUM, Strain/Indicator: TA98, Metabolic Activation: RAT, LIVER, S-9, AROCLOR 1254, Method: MICROSUSPENSION). Further, the mutagenic call runs as follows: under setting [3], “inactive; negative”; (Test System: AMES SALMONELLA TYPHIMURIUM, Strain/Indicator: TA100, Metabolic Activation: NONE, Method: MICROSUSPENSION) “inactive; negative”; under setting [4], “inactive; negative”; (Test System: AMES SALMONELLA TYPHIMURIUM, Strain/Indicator: TA100, Metabolic Activation: RAT LIVER S-9) “inactive; negative”; (Test System: AMES SALMONELLA TYPHIMURIUM, Strain/Indicator: TA100, Metabolic Activation: RAT LIVER S-9, AROCLOR 1254, Method: STANDARD PLATE) “inactive; negative”; (Test System: AMES SALMONELLA TYPHIMURIUM, Strain/Indicator: TA100, Metabolic Activation: RAT, LIVER, S-9, AROCLOR 1254, Method: MICROSUSPENSION) “inactive; negative”. Further, the mutagenic call reads like this: (Test System: AMES SALMONELLA TYPHIMURIUM, Strain/Indicator: TA102, Metabolic Activation: NONE, Method: STANDARD PLATE) “inactive; negative”; (Test System: AMES SALMONELLA TYPHIMURIUM, Strain/Indicator: TA102, Metabolic Activation: RAT, LIVER, S-9, PHENOBARBITAL-BETA-NAPHTHOFLAVONE, Method: STANDARD PLATE) “inactive; negative”; (Test System: AMES SALMONELLA TYPHIMURIUM, Strain/Indicator: TA104, Metabolic Activation: NONE, Method: MICROSUSPENSION) “inactive; negative”; (Test System: AMES SALMONELLA TYPHIMURIUM, Strain/Indicator: TA104, Metabolic Activation: RAT, LIVER, S-9, AROCLOR 1254, Method: MICROSUSPENSION) “inactive; negative”; (Test System: AMES SALMONELLA TYPHIMURIUM, Strain/Indicator: TA1535, Metabolic Activation: NONE, Method: MICROSUSPENSION) “inactive; negative”; (Test System: AMES SALMONELLA TYPHIMURIUM, Strain/Indicator: TA1535, Metabolic Activation: RAT, LIVER, S-9, AROCLOR 1254, Method: MICROSUSPENSION) “inactive; negative”. Moreover, the mutagenic call by setting is: (Test System: Ames Salmonella typhimurium, Strain/Indicator: TA98, Metabolic Activation: None, Method: Plate incorporation) “inactive; negative”; (Test System: Ames Salmonella typhimurium, Strain/Indicator: TA98, Metabolic Activation: None, Method: Preincubation) “inactive; negative”; (Test System: Ames Salmonella typhimurium, Strain/Indicator: TA98, Metabolic Activation: Rat, Liver, S-9, Method: Plate incorporation) “inactive; negative”; (Test System: Ames Salmonella typhimurium, Strain/Indicator: TA98, Metabolic Activation: Rat, Liver, S-9, Method: Preincubation) “inactive; negative”; (Test System: Ames Salmonella typhimurium, Strain/Indicator: TA100, Metabolic Activation: None, Method: Plate incorporation) “inactive; negative”; (Test System: Ames Salmonella typhimurium, Strain/Indicator: TA100, Metabolic Activation: None, Method: Preincubation) “inactive; negative”. The mutagenic call by setting is: (Test System: Ames Salmonella typhimurium, Strain/Indicator: TA100, Metabolic Activation: Rat, Liver, S-9, Method: Plate incorporation) “inactive; negative”; (Test System: Ames Salmonella typhimurium, Strain/Indicator: TA100, Metabolic Activation: Rat, Liver, S-9, Method: Preincubation) “inactive; negative”; (Test System: Ames Salmonella typhimurium, Strain/Indicator: YG1041, Metabolic Activation: None, Method: Plate incorporation) “inactive; negative”; (Test System: Ames Salmonella typhimurium, Strain/Indicator: YG1041, Metabolic Activation: None, Method: Preincubation) “inactive; negative”; (Test System: Ames Salmonella typhimurium, Strain/Indicator: YG1042, Metabolic Activation: None, Method: Plate incorporation) “inactive; negative”; (Test System: Ames Salmonella typhimurium, Strain/Indicator: YG1042, Metabolic Activation: None, Method: Preincubation) “inactive; negative”. Besides, the mutagenic call is, setting by setting: under setting [5], “active; positive”; (Test System: MOUSE LYMPHOMA, Strain/Indicator: L5178Y (TK+/TK-), Method: SUSPENSION/PLATE) “inactive; negative”; (Test System: UDS MOUSE HEPATOCYTES, Strain/Indicator: THY INCORP, Metabolic Activation: NONE, Method: IN-VIVO-IN VITRO) “inactive; negative”; (Test System: UDS RAT HEPATOCYTES, Strain/Indicator: THYMIDINE INCORPORATION, Metabolic Activation: NONE, Method: LIQUID SCINTILLATION COUNTING) “active; positive”; (Test System: UDS RAT HEPATOCYTES, Strain/Indicator: THYMIDINE INCORPORATION, Metabolic Activation: RAT LIVER S-9, AROCLOR 1254, Method: LIQUID SCINTILLATION COUNTING) “active; positive”.
As to `CCNc1nc(NC(C)C)[nH]c(=O)n1`, the mutagenic call runs as follows: (Test System: AMES SALMONELLA TYPHIMURIUM, Strain/Indicator: TA97, Metabolic Activation: NONE, Method: STANDARD PLATE) “inactive; negative”; under setting [2], “inactive; negative”; under setting [4], “inactive; negative”.
As for `O=Nc1ccc(NNc2ccccc2)cc1`, the mutagenic call by setting is: (Test System: AMES SALMONELLA TYPHIMURIUM, Strain/Indicator: TA98, Metabolic Activation: RAT, LIVER, S-9, AROCLOR 1254, Method: STANDARD PLATE) “active; positive”; (Test System: AMES SALMONELLA TYPHIMURIUM, Strain/Indicator: TA100, Metabolic Activation: RAT, LIVER, S-9, AROCLOR 1254, Method: STANDARD PLATE) “active; positive”.
For the compound `CCOC(=O)[C@H](CCc1ccccc1)N[C@@H](C)C(=O)N(CC(=O)O)C1Cc2ccccc2C1`, the mutagenic call under setting [1] is “inactive; negative”; the mutagenic call (Test System: AMES SALMONELLA TYPHIMURIUM, Strain/Indicator: TA98, Metabolic Activation: S-9) was “inactive; negative”; the mutagenic call under setting [3] was “inactive; negative”; the mutagenic call (Test System: AMES SALMONELLA TYPHIMURIUM, Strain/Indicator: TA100, Metabolic Activation: S-9) is “inactive; negative”; the mutagenic call (Test System: AMES SALMONELLA TYPHIMURIUM, Strain/Indicator: TA1535, Metabolic Activation: NONE) was “inactive; negative”; the mutagenic call (Test System: AMES SALMONELLA TYPHIMURIUM, Strain/Indicator: TA1535, Metabolic Activation: S-9) is “inactive; negative”. Besides, the mutagenic call (Test System: AMES SALMONELLA TYPHIMURIUM, Strain/Indicator: TA1537, Metabolic Activation: NONE) was “inactive; negative”; the mutagenic call (Test System: AMES SALMONELLA TYPHIMURIUM, Strain/Indicator: TA1537, Metabolic Activation: S-9) was “inactive; negative”; the mutagenic call (Test System: E. COLI, Strain/Indicator: WP2 UVRA, Metabolic Activation: NONE) is “inactive; negative”; the mutagenic call (Test System: E. COLI, Strain/Indicator: WP2 UVRA, Metabolic Activation: S-9) is “inactive; negative”.
In the case of `O=C(N[C@H](CO)[C@H](O)c1ccc([N+](=O)[O-])cc1)C(Cl)Cl`, the mutagenic call reads like this: (Test System: CHINESE HAMSTER V-79, Strain/Indicator: V-79/6-THIOGUANINE, Metabolic Activation: NONE) “active; positive”; (Test System: CHINESE HAMSTER V-79, Strain/Indicator: V-79/6-THIOGUANINE, Metabolic Activation: RAT HEPATOCYTES) “inactive; negative”.
Consider `O=S(=O)(O)c1cc(N=Nc2ccc(O)cc2)ccc1C=Cc1ccc(N=Nc2ccc(O)cc2)cc1S(=O)(=O)O`, for which the mutagenic call (Test System: MOUSE LYMPHOMA, Strain/Indicator: L5178Y (TK+/TK-), Metabolic Activation: NONE, Method: SUSPENSION/PLATE) was “inactive; negative. reevaluation of results: negative” and the mutagenic call under setting [5] was “inactive; negative. reevaluation of results: negative”.
